Test results taken from US6670187B2, “Mutant Plk protein and gene encoding the same” (Riken, priority 2000, dated 2003).
Peptide text beside a SMILES is read from it. * marks the point of attachment. Cbz = O=C(OCc1ccccc1)*

How the values were obtained:
Plk protein = test: Western blotting of Plk protein level after geldanamycin treatment; assay type: cell-based, human; settings: for Sensitivity of Plk to GA: Western blotting
Experimental: The cells were lysed with TENSV buffer (Schulte, T. W., et al., J. Biol. Chem., 270, 24585-24588, 1995; Hutchison, K. A., et al., J. Biol. Chem., 267, 13952-13957, 1992) at 4° C. with sonication. The lysates were subjected to electrophoresis on an SDS polyacrylamide gel. Proteins were transferred to Immobilon PVDF membrane (Millipore) and immunoblotted with anti-Plk antibody (Zymed and Santa Cruz), anti-Hsp90 antibody (AC88; Stressgen), anti-GST antibody (Santa Cruz), anti-α-tubulin antibody (Amersham), or anti-Raf-1 antibody (Santa Cruz). Detection was performed with an enhanced chemiluminescence reagent (Pierce).
The immune complexes were collected by immunoprecipitation using anti-Plk antibody and electrophoresed on an SDS-polyacrylamide gel. […] Aliquots of cell lysates were immunoprecipitated with an anti-Plk or anti-Hsp90 antibody. In the same manner, aliquots of non-immunoprecipitated cell lysates were used for Western blotting.
Aliquots of cell lysates were immunoblotted with the indicated antibodies.

U937 cells = test: Cell viability of geldanamycin-treated U937 cells; assay type: cell-based, human; settings: 100 nM
Hsp90 = test: In vitro binding assay of GST-fused Plk proteins with HL-60 lysate, Hsp90 detected; set-up: species or system human; settings: 1 μg GST-fused protein, Western blotting
Experimental: (§1) The PCR products were cloned into pGEM-T Easy vector (Promega) and nucleotide sequence analysis was carried out by using the dideoxynucleotide chain-termination procedure with an Applied Biosystems automated sequencer. The sequence was confirmed to be identical with a previous report (Golsteyn, R., et al., J. Cell Sci., 107, 1509-1517, 1994). Plk cDNA was inserted into pGEX-2T, and GST-fused Plk was expressed in DH5α with 0.1 mM isopropyl β-D-thiogalacto-pyranoside.
(§2) For the binding assay, 1 μg of GST-fused proteins was incubated with the lysate of HL-60 cells (1 mg) in TENSV buffer. GST-fused Plk proteins were precipitated with glutathione-agarose (Sigma). Hsp90 or α-tubulin associated with GST-fused Plk proteins was detected by Western blotting using an anti-Hsp90 or anti-α-tubulin antibody.
(§3) The circle stands for the GST protein, the dotted bar for the kinase domain (residues 53-305) and the black box for the polo-box (residues 410-439). b; GST-fused Plks, expressed in Escherichia coli, were collected with glutathione-agarose, and incubated with the lysate of HL-60 cells. After incubation, GST-fused Plks were precipitated with glutathione-agarose. Hsp90 or α-tubulin associated with GST-fused Plks was detected by Western blotting using an anti-Hsp90 or anti-α-tubulin antibody.

α-tubulin = test: In vitro binding assay of GST-fused Plk proteins with HL-60 lysate, α-tubulin detected; set-up: species or system human; settings: 1 μg GST-fused protein, Western blotting
Experimental: as §1, §2, §3

CC(C)C[C@@H](C=O)NC(=O)[C@H](CC(C)C)NC(=O)[C@H](CC(C)C)NC(=O)OCc1ccccc1 [MG132] (Cbz-Leu-Leu-Leu-aldehyde)
geldanamycin-induced destabilization of Plk protein (Plk protein; co-treatment with proteasome inhibitor): inhibited

COC1=C2C[C@@H](C)C[C@H](OC)[C@H](O)[C@@H](C)/C=C(\C)[C@H](OC(N)=O)[C@@H](OC)/C=C\C=C(/C)C(=O)NC(=CC1=O)C2=O [geldanamycin]
Sensitivity of Plk to GA (Plk protein; A431 cells, Plk S487G, P509S): − | Sensitivity of Plk to GA (Plk protein; A549 cells, Plk D457G): − | Sensitivity of Plk to GA (Plk protein; HL-60 cells, wt Plk): + (Plk protein decreased after GA treatment.) | Sensitivity of Plk to GA (Plk protein; HeLa cells, wt Plk): + (Plk protein decreased after GA treatment.) | Sensitivity of Plk to GA (Plk protein; Hep G2 cells, Plk N496S, R512W): − | Sensitivity of Plk to GA (Plk protein; Jurkat cells, wt Plk): + (Plk protein decreased after GA treatment.) | Sensitivity of Plk to GA (Plk protein; K562 cells, wt Plk): + (Plk protein decreased after GA treatment.) | Sensitivity of Plk to GA (Plk protein; MKN74 cells, Plk E569K): − | Sensitivity of Plk to GA (Plk protein; U937 cells, wt Plk): + (Plk protein decreased after GA treatment.) | cell viability (U937 cells; 12 hours): without decreasing cell viability | cell viability (majority of cells died) (U937 cells; after 2 days): 15.4±3.2%

K82R: GST-fused kinase negative Plk mutant
binding to Hsp90 (Hsp90): can bind

Plk/A431: GST-fused mutant Plk from A431 cells (S487G, P509S in C-terminus)
association of tubulin with Plk (α-tubulin): little effect | binding to Hsp90 (Hsp90): unable to bind

Plk/Hep G2: GST-fused mutant Plk from Hep G2 cells (N496S, R512W in C-terminus)
association of tubulin with Plk (α-tubulin): little effect | binding to Hsp90 (Hsp90): unable to bind

full-length Plk: GST-fused human full-length wild-type Plk expressed in Escherichia coli
binding to Hsp90 (Hsp90): can bind
